The values that follow come from patent US10502742B2, “Flourescent exomarker probes for hydrogen sulfide detection” (AMRITA VISHWA VIDYAPEETHAM, priority 2017, dated 2019).

Data set [1] in a line: Physiological pH stability study by fluorescence spectrometry. It counts as physicochemical. The source says: The stability and reactivity of Mito-HS toward H2S in various physiological pH was studied in fluorescence spectrometry as shown in FIG. 6.
Data set [2] is described as follows: Selectivity: fluorescence responses in the presence of biologically important analytes. The conditions noted are these: Mito-HS 5 μM; PBS, 0.2% DMSO, pH 7.4, 37° C.; excitation 380 nm. Here is the method:
Fluorescence responses of Mito-HS (5 μM) in the presence of various biologically important analytes such as H2S, cysteine (Cys), H2O2, NaNO2, Cu(OAc)2, Zn(OAc)2, FeSO4, FeCl3, Na2CO3, GSH, and ascorbic acid (AA) NO, Na2S2O4 in aqueous solutions (in PBS, 0.2% DMSO, pH=7.4) at 37° C. were studied as shown in FIG. 5. Excitation wavelength was set at 380 nm and excitation and emission slit widths both set at 3 nm. Error bars were obtained from triplet experimental data. […] So, the experiment supported the proposed concept of using Mito-HS to track cellular H2S over other competing substances such as thiols.

A short description of data set [3]: Fluorescence response of Mito-HS to variable concentrations of Na2S (H2S) in PBS. The procedure:
UV-Vis and fluorescence spectroscopy was studied and changes of Mito-HS was recorded in variable concentrations of Na2S (0-200 μM) in PBS buffer solution containing 0.2% of DMSO at physiological pH (pH 7.4) to study the performance of the probe in H2S (Na2S) environment as shown in FIG. 3A-C. In FIG. 3A, the UV-Vis absorption band at λab 370 nm gradually decreases with the appearance of a new absorption band at λab 395 nm in the presence of variable concentrations of H2S.

The next data set has as its system 3T3-L1 cells. The data set can be described thus: Fluorescence microscopy of endogenous H2S in cells. It counts as cell-based. The conditions noted are these: 3T3-L1 normal cells, similar conditions, even after an hour. The procedure: (§1) Human cervical cancer cells (HeLa), breast cancer cells (MDA-MB-231), prostate cancer cells (DU 145) and 3T3-L1 fibroblast cells were cultured in DMEM high glucose media supplemented with 10% fetal bovine serum, 1% Penstrep, 0.2% Amphotericin B. The cells were grown overnight at 37° C. incubator with 5% CO2. HeLa, MDA-MB-231, DU 145, and 3T3-L1 cells were seeded at a density of 0.3×10^6 cells in 35 mm dish and kept overnight. The probe Mito-HS prepared in Example 1 was dissolved in 0.2% DMSO to make a stock concentration of 10 mM. The cells were treated with 5 μM of Mito-HS for 15 min. 300-550 nm excitation light was used to measure its fluorescence properties. Images were acquired using Zeiss Fluorescence Microscope (A1 Axiovert) with ×40 objective lens.
(§2) Fluorescence microscopic study was performed for Mito-HS treated and untreated cancer cells (HeLa, MDA-MB-231 and DU145 cells) and normal cell (3T3-L1 cells) by illuminating lights of 390 nm as excitation wavelength and monitoring the emission over 440-500 nm range. […] In contrast, Mito-HS pretreated normal cells were remained non-fluorescent under similar conditions even after an hour. The insufficient production of H2S in 3T3-L1 cells was responsible for their non-fluorescent images.

Data set [4] has as its system MDA-MB-231 cells. The data set can be described thus: Fluorescence microscopy of endogenous H2S in cells. It counts as cell-based, Human. Here is the method:
as §1, §2
(§3) To assure that the fluorescence image of the Mito-HS treated cells were solely due to production of endogenous H2S instead of any other endogenous thiol-like entities such as GSH, cysteine and homocysteine, HeLa, MDA-MB-231 and DU145 cells were pretreated with a thiol-masking agent, here N-ethyl maleimide (NEM).

Data set [5] deals with DU145 cells. The data set can be described thus: Fluorescence microscopy of endogenous H2S in cells. It counts as cell-based, Human. Here is the method:
as §1, §2, §3

In data set [6] the test system is HeLa cells. The data set can be described thus: Fluorescence microscopy of endogenous H2S in cells. It counts as cell-based, Human. Here is the method: as §1, §2, §3
The subject of data set [7] is mitochondria of DU145 cells. The experiment in a line: Co-localization experiment with MitoSox Red. It counts as cell-based, Human. The procedure:
(§4) In order to evaluate the mito-targeting nature of Triphenylphosphonium ion of Mito-HS, a co-localization experiment was carried out with MitoSox Red, which is a mitochondria targeting dye, to make a comparison study.

Data set [8] has as its system mitochondria of HeLa cells. The experiment in a line: Co-localization experiment with MitoSox Red. It counts as cell-based, Human. Here is the method: as §4
Data set [9] deals with mitochondria of MDA MB 231 cells. The experiment in a line: Co-localization experiment with MitoSox Red. It counts as cell-based, Human. Here is the method: as §4
Data set [10] has as its system MDA-MB-231 cells. The data set can be described thus: In vitro cytotoxicity, MTT assay. The settings on record: MDA-MB-231, MTT, 48 h incubation. It counts as cell-based, Human. Here is the method: as §1
(§5) Prior to the application of probe in vitro, cytotoxicity study was performed to check its biocompatibility. HeLa, MDA-MB-231 and DU145 cells were considered to assess the cytotoxicity of Mito-HS by conventional MTT assay. The cells were treated with Mito-HS and incubated for 48 h.

Data set [11] deals with DU145 cells. The data set can be described thus: In vitro cytotoxicity, MTT assay. It counts as cell-based, Human. The settings on record: 48 h incubation. The procedure: as §1, §5
Data set [12] deals with HeLa cells. The data set can be described thus: In vitro cytotoxicity, MTT assay. It counts as cell-based, Human. The conditions noted are these: 48 h incubation. Here is the method:
as §1, §5

The nature of data set [13]: Determination of fluorescence quantum yield. It counts as physicochemical. The conditions noted are these: PBS 10 mM, pH 7.4, quinine standard. The procedure: The fluorescence quantum yield of Mito-HS was determined in the presence and absence of H2S in PBS buffer solution of 10 mM concentration and in the physiological pH of 7.4 taking quinine (ΦX=0.542) as standard. The fluorescence quantum yield was calculated by the equation: ΦS=ΦX (ASFS/AXFX), where, AS and AX are the absorbance of the sample and the reference, respectively; at the same excitation wavelength, FS and FX are the corresponding relative integrated fluorescence intensities. The quantum yield for Mito-HS calculated to be 0.045 was increased to 0.479 due to formation of FL-1 in the presence of H2S.

A short description of data set [14]: Detection of H2S in blood serum by fluorescence spectroscopy. The conditions noted are these: fetal bovine serum (0.45 mM albumin protein), 37° C.; ex 380 nm, em 450 nm. The procedure: Fluorescence spectroscopy was performed for Mito-HS in fetal bovine serum at 37° C. Excitation and emission wavelengths were set at 380 nm and 450 nm respectively and slit widths at 3 nm.

Data set [15] can be described thus: Time-dependent fluorescence of Mito-HS in the presence of H2S. The conditions noted are these: H2S (20.0 eq.). The procedure: The environment of biological entities in cellular milieu is temporal, henceforth, the response time of probe for an analyte is crucial. Thus, time-dependent fluorescence data at λmax 450 nm were recorded in the presence of H2S (20.0 eq.). […] The rate of reaction of Mito-HS with H2S was calculated to be 5.4×10^−3 s^−1.

The conditions of data set [16]: reference standard value; cited from earlier work.

SMILES strings stand for the structures.

As for `[N-]=[N+]=Nc1ccc2cc(C(=O)NCC[P+](c3ccccc3)(c3ccccc3)c3ccccc3)c(=O)oc2c1` [Mito-HS], the “fluorescence intensity toward H2S at various pH” value in [1] (in H2S environment, pH 4-9) is given as “high fluorescence intensity was observed in H2S environment with sharp depreciation in lower pH range”. Further, the “pH range in which stable” value in data set [1] (in absence of H2S, fluorescence spectrometry) is given as 4-9. In data set [2], the “fluorescence change with analytes other than H2S” value is “none of the analytes showed considerable fluorescence change other than H2S”. Moreover, in data set [3] (H2S 0-200 μM added, λmax 450 nm), the “H2S concentration at fluorescence saturation point” value was determined as 200 µM. Moreover, in data set [3] (H2S 200 μM, λmax 450 nm, PBS pH 7.4, 0.2% DMSO), the “fluorescence intensity increase in the presence of H2S” value was ~43 fold. Moreover, the “H2S concentration range detectable (physiological condition)” value in [3] (PBS pH 7.4, 0.2% DMSO) is reported as 10-600 μM. In [3] (calculated by applying regression equation), the “lower detection limit for H2S” value is reported as 24.3 nM. The cell fluorescence image result is “non-fluorescent” in the data set with 3T3-L1 cells; “strong fluorescence” in the data set on MDA-MB-231 cells [4] (MDA-MB-231, Mito-HS 5.0 μM, ex 390 nm, em 440-500 nm); “strong fluorescence” in the data set with DU145 cells [5] (DU145, Mito-HS 5.0 μM, ex 390 nm, em 440-500 nm); “strong fluorescence” in the data set with HeLa cells [6] (Mito-HS 5.0 μM, ex 390 nm, em 440-500 nm). Also, the “cell fluorescence after pretreatment with thiol-masking agent NEM” value was “equally fluorescent labeled” with MDA-MB-231 cells [4] (MDA-MB-231, NEM pretreated); “equally fluorescent labeled” in the data set with DU145 cells [5] (DU145, NEM pretreated); “equally fluorescent labeled” in the data set on HeLa cells [6] (NEM pretreated vs NEM untreated). Further, the subcellular localization result in [7], in [8] and in data set [9] was “predominantly in mitochondria” throughout. Moreover, the “cytotoxicity (cell viability)” value with MDA-MB-231 cells [10], with DU145 cells [11] and with HeLa cells [12] was “did not show cytotoxic behavior” each time. The fluorescence quantum yield in data set [13] (absence of H2S) is 0.045; in data set [13] (presence of H2S (formation of FL-1)) it was 0.479. Further, in data set [14], the “increase of fluorescence intensity in blood serum” value worked out at 30 fold. In addition, the “rate of reaction of Mito-HS with H2S” value in [15] (fluorescence at λmax 450 nm) came to 0.0054 s⁻¹. Further, in data set [15] (λmax 450 nm), the “time at which fluorescence intensity plateaued” value is > 40 min.
On to `C=C[C@H]1C[N@@]2CC[C@H]1C[C@H]2[C@H](O)c1ccnc2ccc(OC)cc12` [quinine], for which the “fluorescence quantum yield of standard (ΦX)” value in data set [16] is recorded as 0.542.
